# Results as given in PubChem BioAssay AID1963449 (Molecular Pharmacology Branch, DTP, NCI, 2024).
# System: 596521-263-R-J1-PDC complex spheroid growth
# Experiment: Anticancer human tumor 596521-263-R-J1-PDC patient-derived soft tissue sarcoma cell line growth inhibition [Asc]
# Details: for IC50: curve of first compound; for viability, T/C: stronger effect = lower value
# How it was run: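 Tumor cells were grown as multicellular spheroids with stromal HUVEC and mesenchymal stem cells and treated singly or in combination. Concentrations fell in half-log steps from the clinical Cmax, or from 10 microM where none was known.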
# 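Also: spheroids exposed to compounds for 7 days.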
structure (smiles),measurement,setting,value
NC(=O)C(=Cn1cnc(-c2cc(C(F)(F)F)cc(C(F)(F)F)c2)n1)c1cncnc1 + CNC(C)C(=O)NC1CN(S(=O)(=O)c2cccc(S(=O)(=O)N3CCC4CCC(C(=O)NC(c5ccccc5)c5ccccc5)N4C(=O)C(NC(=O)C(C)NC)C3)c2)CCC2CCC(C(=O)NC(c3ccccc3)c3ccccc3)N2C1=O,IC50,second compound 0.00316 µM,20.4 nM
same,IC50,second compound 0.01 µM,25.6 nM
same,IC50,second compound 0.0316 µM,21.4 nM
same,IC50,second compound 0.1 µM,18.1 nM
same,IC50,second compound 0.316 µM,17.6 nM
same,IC50,second compound 1 µM,12.5 nM
same,"viability, T/C","second compound 0.00316 µM, first compound 0.000949 µM",99.8%
same,"viability, T/C","second compound 0.00316 µM, first compound 0.003 µM",94.3%
same,"viability, T/C","second compound 0.00316 µM, first compound 0.00949 µM",67.1%
same,"viability, T/C","second compound 0.00316 µM, first compound 0.03 µM",42.8%
same,"viability, T/C","second compound 0.00316 µM, first compound 0.0949 µM",16.1%
same,"viability, T/C","second compound 0.00316 µM, first compound 0.3 µM",10.4%
same,"viability, T/C","second compound 0.01 µM, first compound 0.000949 µM",101%
same,"viability, T/C","second compound 0.01 µM, first compound 0.003 µM",101%
same,"viability, T/C","second compound 0.01 µM, first compound 0.00949 µM",84.3%
same,"viability, T/C","second compound 0.01 µM, first compound 0.03 µM",44.9%
same,"viability, T/C","second compound 0.01 µM, first compound 0.0949 µM",14.8%
same,"viability, T/C","second compound 0.01 µM, first compound 0.3 µM",9.7%
same,"viability, T/C","second compound 0.0316 µM, first compound 0.000949 µM",102%
same,"viability, T/C","second compound 0.0316 µM, first compound 0.003 µM",93.7%
same,"viability, T/C","second compound 0.0316 µM, first compound 0.00949 µM",75.8%
same,"viability, T/C","second compound 0.0316 µM, first compound 0.03 µM",38.6%
same,"viability, T/C","second compound 0.0316 µM, first compound 0.0949 µM",18.7%
same,"viability, T/C","second compound 0.0316 µM, first compound 0.3 µM",10.5%
same,"viability, T/C","second compound 0.1 µM, first compound 0.000949 µM",93.6%
same,"viability, T/C","second compound 0.1 µM, first compound 0.003 µM",89.4%
same,"viability, T/C","second compound 0.1 µM, first compound 0.00949 µM",67.5%
same,"viability, T/C","second compound 0.1 µM, first compound 0.03 µM",35.6%
same,"viability, T/C","second compound 0.1 µM, first compound 0.0949 µM",14.6%
same,"viability, T/C","second compound 0.1 µM, first compound 0.3 µM",5.92%
same,"viability, T/C","second compound 0.316 µM, first compound 0.000949 µM",95.3%
same,"viability, T/C","second compound 0.316 µM, first compound 0.003 µM",76.8%
same,"viability, T/C","second compound 0.316 µM, first compound 0.00949 µM",71.3%
same,"viability, T/C","second compound 0.316 µM, first compound 0.03 µM",33.8%
same,"viability, T/C","second compound 0.316 µM, first compound 0.0949 µM",14.4%
same,"viability, T/C","second compound 0.316 µM, first compound 0.3 µM",6.61%
same,"viability, T/C","second compound 1 µM, first compound 0.000949 µM",85.8%
same,"viability, T/C","second compound 1 µM, first compound 0.003 µM",81.8%
same,"viability, T/C","second compound 1 µM, first compound 0.00949 µM",56.1%
same,"viability, T/C","second compound 1 µM, first compound 0.03 µM",27.3%
same,"viability, T/C","second compound 1 µM, first compound 0.0949 µM",11.2%
same,"viability, T/C","second compound 1 µM, first compound 0.3 µM",7.61%
